Key:
[1] = tested on: C. elegans; assay: Mitophagy and mitochondrial function in C. elegans; format: in vivo
Excerpt: FIGS. 13A-13B illustrate that coumarin 106 (“C1”, “AIC106”) promotes increased indices of mitophagy. FIG. 13A) Representative images and GFP quantification of mitochondrial content at day-5 adult worms (pges-1mtGFP; bottom) of mito::GFP reporter strains (GFP tagged to mitochondrial localizing signals) treated with C1 or DMSO control. FIG. 13B) Visualizing mitochondrial fission using mito::GFP (pmyo-3mtGFP) reporter strain. Representative GFP image shown in upper panel. Representative images (lower panel) showing mitochondrial fission after 48 hrs of C1 or control treatment (63× oil). Images converted to black & white format using NIH ImageJ software for quantification of fragmented mitochondria, denoted as white puncta here.
FIGS. 14A-14B illustrate that coumarin 106 (“C1”, “AIC106”) results in increases in mitochondrial function. FIG. 14A) Basal and maximal respiration measured in live worms in the Seahorse following addition of C1 (50, 200 μM). Values are reported as oxygen consumption rate (OCR, pmol/min/mg protein)+/− FCCP addition; *p<0.05; **p<0.01. FIG. 14B) Sensitivity to treatment for with increasing concentrations of the mitochondrial uncoupler FCCP in the absence and presence of C1 (20, 50 μM; 1 hr). Values are reported as % of live worms per plate, *p<0.01 versus FCCP alone.
FIG. 20, panels A-H: AIC106 treatment improves mitochondrial health. Panel A) Changes in mitochondrial membrane potential were determined by quantifying fluorescence intensity of individual TMRM stained wild type N2 worms post-24 hours treatment with AIC106 and DMSO-control. [N=3 independent experiments (mean±SD). ****p<0.0001, by unpaired t-test]. Panel B) TMRM stained wild type N2 worms were monitored by fluorescence microscopy. Panel C) Mitophagy flux upon AIC106 treatment was determined in DLM14 young adult worms (TOMM-7 tagged to a peptide linked dual-Fluorescent GFP) by quantifying relative fold changes in ratio of monomeric-fluorescent protein (mFP) to dual-fluorescent protein (dFP) compared to DMSO-control. Panel D) Ability of AIC106 to rescue mitochondrial toxin (FCCP) sensitivity was determined as percent survival of 24 hours treated AIC106 and DMSO-control wild type N2 worms. [N=3 independent experiments (mean±SD). ****p<0.0001, by two-way ANOVA with Sidak's multiple comparisons test]. Panel E) Ability of AIC106 to rescue enhanced mitochondrial toxin (FCCP, 20 μM) sensitivity in mitophagy deficient parkin/pdr-1 mutant was determined as percent survival of 24 hours treated AIC106 and DMSO-control pdr-1(tm598) and pdr-1(tm598); hlh-30(tm1978) mutant. [N=3 independent experiments (mean±SD). *p<0.05, by two-way ANOVA with Sidak's multiple comparisons test]. Panel F) Effect of AIC106 on mitochondrial biogenesis was determined by quantifying GFP fluorescence intensity in an individual SJ4143 worm (GFP targeted in mitochondria of intestinal cells) post-72 hours of treatment with AIC106 and DMSO-control. [N=3 independent experiments (mean±SD). ****p<0.0001, by unpaired t-test]. Panel G) SJ4143 worms were monitored by fluorescence microscopy. Panel H) Effects of AIC106 on basal (B) and maximum (M) mitochondrial respiration rate were determined by quantifying oxygen consumption rate (OCR) in wild type N2 and hlh-30(tm1978) mutant strain post-24 hours of treatment with AIC106 and DMSO-control. [N=3 independent experiments (mean±SD). *p<0.05, ***p<0.001 and ****p<0.0001, by one-way ANOVA with Tukey's multiple comparisons test].
FIG. 27, panels A-C: AIC106 induces mitophagy and increases lifespan. Panel A) Relative fold change in mRNA of key mitophagy genes including dct-1, pink-1 and pdr-1 was quantified by qRT-PCR after DMSO-control and AIC106 24 hours treatment in young adult N2 and hlh-30(tm1978) mutants. [N=3 independent experiments (mean±SD). **p<0.01 and ****p<0.0001, by two-way ANOVA with Sidak's multiple comparisons test]. […]

[2] = tested on: worms expressing human Abeta and alpha-synuclein; assay: Neurodegenerative C. elegans models expressing human Abeta and alpha-synuclein (Example 1); format: in vivo; conditions: worms expressing human Abeta and alpha-synuclein (FIG. 11)
Procedure: FIGS. 11A-11D illustrate that coumarin 106 (“C1”, “AIC106”) is protective in a TFEB-dependent manner in C. elegans models that express human neurotoxic proteins. FIG. 11A) Transgenic worm strain expressing human alpha-synuclein under control of the dopamine-specific promoter grown on control or HLH-30 RNAi were exposed to 20 μM C1 versus DMSO-only controls on day-1 of adulthood. GFP+ cell counts were performed in young adults. Values represent number of animals displaying no DAergic cell loss; pooled results from 2 independent experiments. FIG. 11B) Transgenic worm strain expressing human alpha-synuclein under control of the muscle-specific promoter grown on control or HLH-30 RNAi were exposed to 20 μM C1 versus DMSO-only control on day-1 of adulthood followed by transfer to fresh plates every alternative day. Number of trashes per 30 sec were measured at day-6 and day-7 (n>60). *p<0.03, ***p<0.0008, ****p<0.0001. FIG. 11C) Transgenic worms expressing Abeta tagged with GFP within glutaminergic neurons grown on control or HLH-30 RNAi were exposed to 50 or 200 μM C1 versus DMSO-only controls on day-1 of adulthood. GFP+ cell counts were performed in young adults. Values represent % intact neurons. […] Number of trashes per 30 sec were measured at day-6 and day-7 (n>60). *p<0.03, ****p<0.0001. […]

SMILES: O=c1oc2c3c4c(cc2c2c1CCC2)CCCN4CCC3 [C1, 2,3,6,7,10,11-Hexahydro-1H,5H-cyclopenta(3,4)(1)benzopyrano(6,7,8-ij)quinolizin-12(9H)-one]
- mitophagy flux (mFP) ([1]; DLM14 worms (FIG. 20, panel C)): increased mFP expression
- mitophagy ([1]; FIG. 13): elevated mitophagy
- mitochondrial health ([1]; FIG. 14): improvement in mitochondrial health
- mRNA of mitophagy specific genes ([1]; N2, hlh-30 dependent (FIG. 27, panel A)): elevated mRNA abundance of key mitophagy specific genes including dct-1 and pink-1
- mitochondrial membrane potential (TMRM fluorescence) ([1]; N2 worms, 24 hours): significant decrease in the MMP
- mitochondrial content (GFP) ([1]; SJ4143 worms, 72 hours): increased mitochondrial content
- maximum respiration capacity (OCR) ([1]; hlh-30 mutant worms): failed to show any increase in the maximum respiration capacity
- maximum respiration capacity (OCR) ([1]; wild type N2, 24 hours): increase maximum respiration capacity
- protection in neurodegenerative C. elegans models [2]: protection in a TFEB-dependent manner
